The text below walks through data of patent US7507411B2, “Attenuated influenza NS1 variants” (University of Saskatchewan, priority 2006, dated 2009).

The subject of one assay is p85 subunit of PI3K. Type of assay: binding, human.
The test system of assay [1] is SH3, SH2C and SH2N domains of the p85 subunit of PI3K. The assay is classed as binding.
The subject of the next assay is PI3K/Akt. Type of assay: cell-based, human.

For “NS1: Wild-type nonstructural protein 1 of influenza A H1N1 Puerto Rico/8/34 (SEQ ID NO:2)”, in the assay with p85 subunit of PI3K, the “precipitation of NS1 by p85 antibody” value was “did precipitate NS1 protein”. For the same substance, in assay [1], the “interaction of NS1 alone with SH2C domain of p85” value is “interacted”, the “interaction of NS1 alone with SH3 domain of p85” value is “interacted”, the “interaction of NS1 with SH2C domain of p85” value was “precipitated NS1” and the “interaction of NS1 with SH3 domain of p85” value was “precipitated NS1”. For the same substance, the “Akt phosphorylation in NS1 expressing cells compared with vector” value with PI3K/Akt is given as “greater degree of Akt phosphorylation”.
